From US8791145B2, “Agricultural formulations with acyl morpholines and polar aprotic co-solvents” (Akzo Nobel Chemicals International B.V., priority 2010, dated 2014)

Key:
[1] = Literature value from Adjuvant Newsletter; cited from earlier work
[2] = Dilution of Imidacloprid formulation in water, ocular inspection; assay type: physicochemical; design: key: +: easily dissolved; −: permanent crystals; NS: Non soluble; details: 200 g/l diluted to 0.4 g/l
Description: Formulations containing 200 g/l of Imidacloprid was formulated together with 40 g/l of an alcohol ethoxylate (2-propylheptanol ethoxylated with 8 moles of EO per mole of alcohol) and diluted to a final volume of one liter with each one of the solvents N-formyl morpholine, N-acetyl morpholine and N-propionyl morpholine along with a co-solvent. The co-solvents used were dimethylsulfoxide (DMSO), propylene carbonate (PC), dimethylformamide (DMF) and ethyl lactate (EL). Ethyl lactate is a protic solvent and is included in the experiment for comparison. The amount of each co-solvent, in % by weight of the total weight of morpholine and co-solvent, is seen in table 2. The solutions was diluted in water to an end concentration of imidacloprid of 0.4 g/l and the dilution was judged by ocular inspection with the naked eye, and in the table below, the following is used: • +: easily dissolved, • −: permanent crystals. • NS: Non soluble

[3] = Solubility in acyl morpholines; assay type: physicochemical; details: 23° C.
Experimental: Various agriculturally active ingredients were dissolved in N-formyl morpholine, N-acetyl morpholine and N-propionyl morpholine in order to evaluate the solubility of the active ingredients in the solvents. This was done by adding the active ingredient to a beaker and thereafter adding the solvent until a clear solution was obtained. The solutions were continually stirred at a temperature of 23° C. during the experiments. When everything had been dissolved, the beakers were left without stirring for 24 h to see if the solution was stable (i.e. no crystallization).

## O=[N+]([O-])NC1=NCCN1Cc1ccc(Cl)nc1 [Imidacloprid]
[1]
  Dissolution of active ingredient into Lactic acid dimethyl amide: 14 grams of active ingredient in 100 g solvent
[2]; NAM, 0% DMF
  Crystallization upon dilution in water: −
[2]; NAM, 0% DMSO
  Crystallization upon dilution in water: −
[2]; NAM, 0% EL
  Crystallization upon dilution in water: −
[2]; NAM, 0% PC
  Crystallization upon dilution in water: −
[2]; NAM, 5% DMF
  Crystallization upon dilution in water: −
[2]; NAM, 5% DMSO
  Crystallization upon dilution in water: −
[2]; NAM, 5% EL
  Crystallization upon dilution in water: −
[2]; NAM, 5% PC
  Crystallization upon dilution in water: −
[2]; NAM, 10% DMF
  Crystallization upon dilution in water: −
[2]; NAM, 10% DMSO
  Crystallization upon dilution in water: −
[2]; NAM, 10% EL
  Crystallization upon dilution in water: NS
[2]; NAM, 10% PC
  Crystallization upon dilution in water: −
[2]; NAM, 15% DMF
  Crystallization upon dilution in water: −
[2]; NAM, 15% DMSO
  Crystallization upon dilution in water: +
[2]; NAM, 15% EL
  Crystallization upon dilution in water: NS
[2]; NAM, 15% PC
  Crystallization upon dilution in water: −
[2]; NAM, 20% DMF
  Crystallization upon dilution in water: +
[2]; NAM, 20% DMSO
  Crystallization upon dilution in water: +
[2]; NAM, 20% EL
  Crystallization upon dilution in water: NS
[2]; NAM, 20% PC
  Crystallization upon dilution in water: NS
[2]; NAM, 25% DMF
  Crystallization upon dilution in water: +
[2]; NAM, 25% DMSO
  Crystallization upon dilution in water: +
[2]; NAM, 25% EL
  Crystallization upon dilution in water: NS
[2]; NAM, 25% PC
  Crystallization upon dilution in water: NS
[2]; NAM, 30% DMF
  Crystallization upon dilution in water: +
[2]; NAM, 30% DMSO
  Crystallization upon dilution in water: +
[2]; NAM, 30% EL
  Crystallization upon dilution in water: NS
[2]; NAM, 30% PC
  Crystallization upon dilution in water: NS
[2]; NAM, 50% DMF
  Crystallization upon dilution in water: +
[2]; NAM, 50% DMSO
  Crystallization upon dilution in water: +
[2]; NAM, 50% EL
  Crystallization upon dilution in water: NS
[2]; NAM, 50% PC
  Crystallization upon dilution in water: NS
[2]; NAM, 95% DMF
  Crystallization upon dilution in water: +
[2]; NAM, 95% DMSO
  Crystallization upon dilution in water: +
[2]; NAM, 95% EL
  Crystallization upon dilution in water: NS
[2]; NAM, 95% PC
  Crystallization upon dilution in water: NS
[2]; NFM, 0% DMF
  Crystallization upon dilution in water: −
[2]; NFM, 0% DMSO
  Crystallization upon dilution in water: −
[2]; NFM, 0% EL
  Crystallization upon dilution in water: −
[2]; NFM, 0% PC
  Crystallization upon dilution in water: −
[2]; NFM, 5% DMF
  Crystallization upon dilution in water: −
[2]; NFM, 5% DMSO
  Crystallization upon dilution in water: −
[2]; NFM, 5% EL
  Crystallization upon dilution in water: −
[2]; NFM, 5% PC
  Crystallization upon dilution in water: −
[2]; NFM, 10% DMF
  Crystallization upon dilution in water: −
[2]; NFM, 10% DMSO
  Crystallization upon dilution in water: +
[2]; NFM, 10% EL
  Crystallization upon dilution in water: NS
[2]; NFM, 10% PC
  Crystallization upon dilution in water: −
[2]; NFM, 15% DMF
  Crystallization upon dilution in water: +
[2]; NFM, 15% DMSO
  Crystallization upon dilution in water: +
[2]; NFM, 15% EL
  Crystallization upon dilution in water: NS
[2]; NFM, 15% PC
  Crystallization upon dilution in water: +
[2]; NFM, 20% DMF
  Crystallization upon dilution in water: +
[2]; NFM, 20% DMSO
  Crystallization upon dilution in water: +
[2]; NFM, 20% EL
  Crystallization upon dilution in water: NS
[2]; NFM, 20% PC
  Crystallization upon dilution in water: +
[2]; NFM, 25% DMF
  Crystallization upon dilution in water: +
[2]; NFM, 25% DMSO
  Crystallization upon dilution in water: +
[2]; NFM, 25% EL
  Crystallization upon dilution in water: NS
[2]; NFM, 25% PC
  Crystallization upon dilution in water: +
[2]; NFM, 30% DMF
  Crystallization upon dilution in water: +
[2]; NFM, 30% DMSO
  Crystallization upon dilution in water: +
[2]; NFM, 30% EL
  Crystallization upon dilution in water: NS
[2]; NFM, 30% PC
  Crystallization upon dilution in water: NS
[2]; NFM, 50% DMF
  Crystallization upon dilution in water: +
[2]; NFM, 50% DMSO
  Crystallization upon dilution in water: +
[2]; NFM, 50% EL
  Crystallization upon dilution in water: NS
[2]; NFM, 50% PC
  Crystallization upon dilution in water: NS
[2]; NFM, 95% DMF
  Crystallization upon dilution in water: +
[2]; NFM, 95% DMSO
  Crystallization upon dilution in water: +
[2]; NFM, 95% EL
  Crystallization upon dilution in water: NS
[2]; NFM, 95% PC
  Crystallization upon dilution in water: NS
[2]; NPM, 0% DMF
  Crystallization upon dilution in water: −
[2]; NPM, 0% DMSO
  Crystallization upon dilution in water: −
[2]; NPM, 0% PC
  Crystallization upon dilution in water: −
[2]; NPM, 5% DMF
  Crystallization upon dilution in water: NS
[2]; NPM, 5% DMSO
  Crystallization upon dilution in water: NS
[2]; NPM, 5% PC
  Crystallization upon dilution in water: NS
[2]; NPM, 10% DMF
  Crystallization upon dilution in water: NS
[2]; NPM, 10% DMSO
  Crystallization upon dilution in water: NS
[2]; NPM, 10% PC
  Crystallization upon dilution in water: NS
[2]; NPM, 15% DMF
  Crystallization upon dilution in water: NS
[2]; NPM, 15% DMSO
  Crystallization upon dilution in water: NS
[2]; NPM, 15% PC
  Crystallization upon dilution in water: NS
[2]; NPM, 20% DMF
  Crystallization upon dilution in water: NS
[2]; NPM, 20% DMSO
  Crystallization upon dilution in water: NS
[2]; NPM, 20% PC
  Crystallization upon dilution in water: NS
[2]; NPM, 25% DMF
  Crystallization upon dilution in water: NS
[2]; NPM, 25% DMSO
  Crystallization upon dilution in water: −
[2]; NPM, 25% PC
  Crystallization upon dilution in water: NS
[2]; NPM, 30% DMF
  Crystallization upon dilution in water: −
[2]; NPM, 30% DMSO
  Crystallization upon dilution in water: −
[2]; NPM, 30% PC
  Crystallization upon dilution in water: NS
[2]; NPM, 50% DMF
  Crystallization upon dilution in water: +
[2]; NPM, 50% DMSO
  Crystallization upon dilution in water: +
[2]; NPM, 50% PC
  Crystallization upon dilution in water: NS
[2]; NPM, 95% DMF
  Crystallization upon dilution in water: +
[2]; NPM, 95% DMSO
  Crystallization upon dilution in water: +
[2]; NPM, 95% EL
  Crystallization upon dilution in water: NS
[2]; NPM, 95% PC
  Crystallization upon dilution in water: NS
[3]; NAM
  Dissolution of active ingredient into N-acetyl morpholine (NAM): 26 grams of active ingredient in 100 g solvent
[3]; NFM
  Dissolution of active ingredient into N-formyl morpholine (NFM): 30 grams of active ingredient in 100 g solvent
[3]; NPM
  Dissolution of active ingredient into N-propionyl morpholine (NPM): 19 grams of active ingredient in 100 g solvent
